molecular target: KRas G12D (Homo sapiens (Human), UniProt P01116, G12D); test: KRas G12D Binding Assay (TR-FRET displacement of Cy5 labelled tracer); conditions: GDP-loaded KRAS G12D (amino acids 1:169), 60 minute incubation at 22° C.
Protocol: After a 60 minute incubation at 22° C., the reaction was measured using a PerkinElmer EnVision multimode plate reader via TR-FRET dual wavelength detection, and the percent of control (POC) calculated using a ratiometric emission factor. […] The POC values were fit to a 4-parameter logistic curve and the IC50 value was determined as the concentration where the curve crosses 50 POC.
ND stands for “not determined.”

Sequence of KRas G12D (P01116 other isoform, or with tags, fused parts or gaps G12D): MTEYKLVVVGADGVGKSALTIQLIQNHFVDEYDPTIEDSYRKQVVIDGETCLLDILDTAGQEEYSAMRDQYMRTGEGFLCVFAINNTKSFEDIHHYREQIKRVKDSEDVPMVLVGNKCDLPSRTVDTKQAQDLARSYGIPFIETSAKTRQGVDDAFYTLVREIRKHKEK

In order of rising IC50:
1. CCc1cccc2cccc(-c3ncc4c(N5CC6CCC(C5)N6)nc(OC[C@@]56C[C@H](O)CN5C[C@H](O)C6)nc4c3F)c12 [Example 466, (2R,6S,7as)-7a-(((4-((1R,5S)-3,8-diazabicyclo[3.2.1]octan-3-yl)-7-(8-ethylnaphthalen-1-yl)-8-fluoropyrido[4,3-d]pyrimidin-2-yl)oxy)methyl)hexahydro-1H-pyrrolizine-2,6-diol]  0.006 nM
2. Oc1cc(-c2ncc3c(N4C[C@H]5CC[C@@H](C4)N5)nc(OC[C@@]45CCCN4C[C@H](F)C5)nc3c2F)c2c(F)c(F)ccc2c1 [Example 246, 4-(4-((1R,5S)-3,8-diazabicyclo[3.2.1]octan-3-yl)-8-fluoro-2-(((2R,7aS)-2-fluorohexahydro-1H-pyrrolizin-7a-yl)methoxy)pyrido[4,3-d]pyrimidin-7-yl)-5,6-difluoronaphthalene-2-ol]  0.6 nM
3. COC1CN2CCCC2(COc2nc(N3CC4CCC(C3)N4)c3cnc(-c4cc(O)cc5cccc(F)c45)c(F)c3n2)C1 (mixture of isomers) [Example 388, 4-(4-((1R,5S)-3,8-diazabicyclo[3.2.1]octan-3-yl)-8-fluoro-2-((2-methoxytetrahydro-1H-pyrrolizin-7a(5H)-yl)methoxy)pyrido[4,3-d]pyrimidin-7-yl)-5-fluoronaphthalen-2-ol]  0.6 nM
4. Oc1cc(Cl)c(C2CC2)c(-c2ncc3c(N4C[C@H]5CC[C@@H](C4)N5)nc(OC[C@@]45CCCN4C[C@H](F)C5)nc3c2F)c1 [Example 283, 3-(4-((1R,5S)-3,8-diazabicyclo[3.2.1]octan-3-yl)-8-fluoro-2-(((2R,7aS)-2-fluorohexahydro-1H-pyrrolizin-7a-yl)methoxy)pyrido[4,3-d]pyrimidin-7-yl)-5-chloro-4-cyclopropylphenol]  0.7 nM
5. CCc1cccc2cc(O)cc(-c3ncc4c(N5CC6CCC(C5)N6)nc(OC[C@]56CCCN5[C@@H](COC(=O)N(C)C)CC6)nc4c3F)c12 [Example 434, 7a-(((4-((1R,5S)-3,8-diazabicyclo[3.2.1]octan-3-yl)-7-(8-ethyl-3-hydroxynaphthalen-1-yl)-8-fluoropyrido[4,3-d]pyrimidin-2-yl)oxy)methyl)hexahydro-1H-pyrrolizin-3-yl)methyl dimethyl carbamate]  0.7 nM
6. O=C1CCC2(COc3nc(N4CC5CCC(C4)N5)c4cnc(-c5cc(O)cc6ccccc56)c(F)c4n3)CCCN12 (stereo not drawn) [Example 462, 7a-(((4-(3,8-diazabicyclo[3.2.1]octan-3-yl)-8-fluoro-7-(3-hydroxynaphthalen-1-yl)pyrido[4,3-d]pyrimidin-2-yl)oxy)methyl)tetrahydro-1H-pyrrolizin-3(2H)-one]  0.751 nM
7. C#Cc1c(F)ccc2cccc(-c3ncc4c(N5C[C@H]6CC[C@@H](C5)N6)nc(OC[C@@]56CCCN5C[C@H](F)C6)nc4c3F)c12 [Example 281, 4-((1R,5S)-3,8-diazabicyclo[3.2.1]octan-3-yl)-7-(8-ethynyl-7-fluoronaphthalen-1-yl)-8-fluoro-2-(((2R,7aS)-2-fluorohexahydro-1H-pyrrolizin-7a-yl)methoxy)pyrido[4,3-d]pyrimidine]  0.9 nM
8. C#CCc1ccc(O)cc1-c1ncc2c(N3C[C@H]4CC[C@@H](C3)N4)nc(OCC34CCCN3CCC4)nc2c1F [Example 279, 3-(4-((1R,5S)-3,8-diazabicyclo[3.2.1]octan-3-yl)-8-fluoro-2-((hexahydro-1H-pyrrolizin-7a-yl)methoxy)pyrido[4,3-d]pyrimidin-7-yl)-4-(prop-2-yn-1-yl)phenol]  1.6 nM
9. CC(C)c1ccc(O)cc1-c1ncc2c(N3C[C@H]4CC[C@@H](C3)N4)nc(OCC34CCCN3CCC4)nc2c1F [Example 403, 3-(4-((1R,5S)-3,8-diazabicyclo[3.2.1]octan-3-yl)-8-fluoro-2-((tetrahydro-1H-pyrrolizin-7a(5H)-yl)methoxy)pyrido[4,3-d]pyrimidin-7-yl)-4-isopropylphenol]  1.9 nM
10. Fc1c(-c2c(OC(F)(F)F)ccc3[nH]ncc23)ncc2c(N3C[C@H]4CC[C@@H](C3)N4)nc(OCC34CCCN3CCC4)nc12 [Example 258, 4-((1R,5S)-3,8-diazabicyclo[3.2.1]octan-3-yl)-8-fluoro-2-((hexahydro-1H-pyrrolizin-7a-yl)methoxy)-7-(5-(trifluoromethoxy)-1H-indazol-4-yl)pyrido[4,3-d]pyrimidine]  6.5 nM
11. O=C1OCCN1C[C@H]1CC[C@@]2(COc3nc(N4CC5CCC(C4)N5)c4cnc(-c5cccc6cccc(Cl)c56)c(F)c4n3)CCCN12 [Example 442, 3-(((3R,7aR)-7a-(((4-(3,8-diazabicyclo[3.2.1]octan-3-yl)-7-(8-chloronaphthalen-1-yl)-8-fluoropyrido[4,3-d]pyrimidin-2-yl)oxy)methyl)hexahydro-1H-pyrrolizin-3-yl)methyl)oxazolidin-2-one]  25 nM
12. Fc1cccc(-c2ncc3c(N4C[C@H]5CC[C@@H](C4)N5)nc(OCC45CCCN4CCC5)nc3c2F)c1OC(F)F [Example 302, 4-((1R,5S)-3,8-diazabicyclo[3.2.1]octan-3-yl)-7-(2-(difluoromethoxy)-3-fluorophenyl)-8-fluoro-2-((hexahydro-1H-pyrrolizin-7a-yl)methoxy)pyrido[4,3-d]pyrimidine]  43.6 nM
13. COC1(OC)CN2CCCC2(COc2nc(N3C[C@H]4CC[C@@H](C3)N4)c3cnc(-c4cccc5cccc(Cl)c45)c(F)c3n2)C1 (stereo partly drawn) [Example 404, 4-((1R,5S)-3,8-diazabicyclo[3.2.1]octan-3-yl)-7-(8-chloronaphthalen-1-yl)-2-((2,2-dimethoxytetrahydro-H-pyrrolizin-7a(5H)-yl)methoxy)-8-fluoropyrido[4,3-d]pyrimidine]  60.8 nM
14. CN1CC[C@@H](COc2nc(N3C[C@H]4CC[C@@H](C3)N4)c3cnc(-c4cccc5cccc(Cl)c45)c(F)c3n2)C1 [Example 356, 4-((1R,5S)-3,8-diazabicyclo[3.2.1]octan-3-yl)-7-(8-chloronaphthalen-1-yl)-8-fluoro-2-(((R)-1-methylpyrrolidin-3-yl)methoxy)pyrido[4,3-d]pyrimidine]  87.2 nM
15. COCCNC(=O)O[C@@H]1C[C@@H](COc2nc(N3C[C@H]4CC[C@@H](C3)N4)c3cnc(-c4cccc5cccc(Cl)c45)c(F)c3n2)N(C)C1 [Example 280, (3R,5S)-5-(((4-((1R,5S)-3,8-diazabicyclo[3.2.1]octan-3-yl)-7-(8-chloronaphthalen-1-yl)-8-fluoropyrido[4,3-d]pyrimidin-2-yl)oxy)methyl)-1-methylpyrrolidin-3-yl (2-methoxyethyl)carbamate]  99.8 nM
16. CNc1nc(N2CC3CCC(C2)N3)c2cnc(-c3cc(O)cc4ccccc34)c(F)c2n1 [Example 183, 4-[4-(3,8-diazabicyclo[3.2.1]octan-3-yl)-8-fluoro-2-(methylamino)pyrido[4,3-d]pyrimidin-7-yl]naphthalen-2-ol]  393 nM
17. Oc1cc(-c2ncc3c(N4C[C@H]5CC[C@@H](C4)N5)ncnc3c2F)c2ccccc2c1 [Example 181, 4-(4-((1R,5S)-3,8-diazabicyclo[3.2.1]octan-3-yl)-8-fluoropyrido[4,3-d]pyrimidin-7-yl)naphthalen-2-ol]  572 nM
18. Cc1cc(-c2ncc3c(N4CC5CCC(C4)N5)nc(OC[C@@]45CCCN4C[C@H](F)C5)nc3c2F)c2cn[nH]c2c1 (stereo in doubt) [Example 391, 4-((1R,5S)-3,8-diazabicyclo[3.2.1]octan-3-yl)-8-fluoro-2-((2-fluorotetrahydro-1H-pyrrolizin-7a(5H)-yl)methoxy)-7-(6-methyl-1H-indazol-4-yl)pyrido[4,3-d]pyrimidine]  662 nM
19. Cc1cc2sc(N)nc2c(-c2ncc3c(N4C[C@H]5CC[C@@H](C4)N5)nc(OCC45CCCN4CCC5)nc3c2F)c1C [Example 456, 4-(4-((1R,5S)-3,8-diazabicyclo[3.2.1]octan-3-yl)-8-fluoro-2-((hexahydro-1H-pyrrolizin-7a-yl)methoxy)pyrido[4,3-d]pyrimidin-7-yl)-5,6-dimethylbenzo[d]thiazol-2-amine]  966 nM
20. O[C@@H]1C[C@@H]2CN(c3nc(OCCc4nccn4C(F)F)nc4c(F)c(-c5cccc6cccc(Cl)c56)ncc34)C[C@H]1N2 [Example 166, (1R,5R,6R)-3-(7-(8-chloronaphthalen-1-yl)-2-(2-(1-(difluoromethyl)-1H-imidazol-2-yl)ethoxy)-8-fluoropyrido[4,3-d]pyrimidin-4-yl)-3,8-diazabicyclo[3.2.1]octan-6-ol]  1290 nM
21. Fc1c(-c2cccc3cccc(Cl)c23)ncc2c(N3C[C@H]4CC[C@@H](C3)N4)nc(N3CC4(CCN4)C3)nc12 [Example 130, 4-((1R,5S)-3,8-diazabicyclo[3.2.1]octan-3-yl)-7-(8-chloronaphthalen-1-yl)-8-fluoro-2-(1,6-diazaspiro[3.3]heptan-6-yl)pyrido[4,3-d]pyrimidine]  1650 nM
22. O[C@@H]1C[C@@H]2CN(c3nc(N4CCC4)nc4c(F)c(-c5cccc6cccc(Cl)c56)ncc34)C[C@H]1N2 [Example 152, (1R,5R,6R)-3-(2-(azetidin-1-yl)-7-(8-chloronaphthalen-1-yl)-8-fluoropyrido[4,3-d]pyrimidin-4-yl)-3,8-diazabicyclo[3.2.1]octan-6-ol]  2650 nM
23. CO[C@H](C)COc1nc(N2C[C@H]3CC[C@@H](C2)N3)c2cnc(-c3cccc4cccc(Cl)c34)c(F)c2n1 [Example 138, 4-((1R,5S)-3,8-diazabicyclo[3.2.1]octan-3-yl)-7-(8-chloronaphthalen-1-yl)-8-fluoro-2-((R)-2-methoxypropoxy)pyrido[4,3-d]pyrimidine]  8070 nM
24. NCCOc1nc(N2C[C@H]3CC[C@@H](C2)N3)c2cnc(-c3cccc4cccc(Cl)c34)c(F)c2n1 [Example 261, 2-((4-((1R,5S)-3,8-diazabicyclo[3.2.1]octan-3-yl)-7-(8-chloronaphthalen-1-yl)-8-fluoropyrido[4,3-d]pyrimidin-2-yl)oxy)ethanamine]  8300 nM
